Results on 69 sequences are retold here after PMC5869189 (Frontiers in Immunology, 2018).

The subject of the assay is PBMC from healthy, seropositive donors. The assay is classed as cell-based, human.
For the sequence PVAPVAPAITSQKITYQADT [BPSL2522_P9], the “% Responders” value stood at 88.6% and the “Median SFC/10^6 PBMCs (IFN-g)” value is 353.
For RVEVEVVGTQEVQKTTVPAQ [BPSL2522_P23], in that order: 97.1% and 361.
On the same counts, the results for PEQGPRAPLANLAQQAAALP [BPSS1599_P37] are 93.8% and 147.
Turning to SALSATDQANATAMVAQINA [BPSL3319_P27], the “% Responders” value worked out at 86.7% and the “Median SFC/10^6 PBMCs (IFN-g)” value came out at 259.
Take TPEIRQDAEFGRQVYEATLC [BPSS1525_P11]: the “% Responders” value is reported as 84.6% and the “Median SFC/10^6 PBMCs (IFN-g)” value is recorded as 184.
On to TELAQAGDIACLALQAARTG [BPSS0530_P10], for which the “% Responders” value was found to be 93.0% and the “Median SFC/10^6 PBMCs (IFN-g)” value is 280.
Consider NRRVEIYLRAPQAAQ [BPSL0999_P21], for which the “% Responders” value turned out to be 93.6% and the “Median SFC/10^6 PBMCs (IFN-g)” value is recorded as 348.
LERLHTDYAWGGWNVVIGEP [BPSS1599_P14]: the “% Responders” value was 95.8% and the “Median SFC/10^6 PBMCs (IFN-g)” value was found to be 157.
On to RLGLRHARGVFQDGTAFSLP [BPSS0530_P7], for which the “% Responders” value was determined as 90.7% and the “Median SFC/10^6 PBMCs (IFN-g)” value is reported as 211.
In the case of SLSRRNELRAEAVELAKKLK [BPSS1599_P3], the “% Responders” value is 89.6% and the “Median SFC/10^6 PBMCs (IFN-g)” value is listed as 156.
On to ASTSAQRVLSTGGGVADLIE [BPSS0530_P23], for which the “% Responders” value was 90.7% and the “Median SFC/10^6 PBMCs (IFN-g)” value worked out at 267.
Turning to NASRTVSLDPRFIPPLLDTR [BPSS0530_P19], the “% Responders” value was 97.7% and the “Median SFC/10^6 PBMCs (IFN-g)” value is on record as 334.
Turning to REPKKQDICYATQNRQDAVK [BPSL0919_P21], the “% Responders” value is 94.6% and the “Median SFC/10^6 PBMCs (IFN-g)” value came out at 422.
For KLNHYSFGDVKGELIDQLGV [BPSL2096_P11], the “% Responders” value came out at 88.2% and the “Median SFC/10^6 PBMCs (IFN-g)” value is reported as 320.
In the case of GALVGGVTGYNWQAIKNKLA [BPSL0999_P7], the “% Responders” value is given as 80.9% and the “Median SFC/10^6 PBMCs (IFN-g)” value stood at 322.
Consider TAACVVLGGAFAYWHHRAKV [BPSS1599_P21], for which the “% Responders” value was determined as 100.0% and the “Median SFC/10^6 PBMCs (IFN-g)” value turned out to be 170.
AHLVLRSLIDELQSTLRVRL [BPSS0530_P21]: the “% Responders” value amounted to 93.0% and the “Median SFC/10^6 PBMCs (IFN-g)” value is 258.
In the case of HFQQLERHLAHQASLRLGQT [BPSS0530_P3], the “% Responders” value amounted to 83.7% and the “Median SFC/10^6 PBMCs (IFN-g)” value is reported as 253.
In the case of ELQSTLRVRLASTSAQRVLS [BPSS0530_P22], the “% Responders” value was 88.4% and the “Median SFC/10^6 PBMCs (IFN-g)” value worked out at 247.
IGSDKYNDRLSLRRAQAVKS [BPSL2522_P15]: the “% Responders” value is recorded as 97.1% and the “Median SFC/10^6 PBMCs (IFN-g)” value was determined as 290.
On to RQTAMSNAQTLASQLVAAGQ [BPSL0280_P14], for which the “% Responders” value was 89.7% and the “Median SFC/10^6 PBMCs (IFN-g)” value stood at 565.
For RDKEAGVALRATFIVDPDNT [BPSL2096_P13], in that order: 94.1% and 315.
Turning to QPKRLDDLLPRRGGRPRTER [BPSS1599_P17], the “% Responders” value is given as 83.3% and the “Median SFC/10^6 PBMCs (IFN-g)” value is 141.
Consider AVRDHAFMPNGDWVGSREEA [BPSS1599_P12], for which the “% Responders” value is 97.9% and the “Median SFC/10^6 PBMCs (IFN-g)” value was determined as 178.
On the same counts, the results for SNHGWGFTLLDLDQDGLGLG [BPSS0530_P5] are 93.0% and 224.
For LLVVEPGATLDTDGERATLD [BPSS1599_P31], in that order: 83.3% and 151.
In the case of SDDPLPPPLETELAQAGDIA [BPSS0530_P9], the “% Responders” value is reported as 90.7% and the “Median SFC/10^6 PBMCs (IFN-g)” value came out at 283.
For IRLRADTLMGAELAARPEYR [BPSS1525_P19], in that order: 82.1% and 197.
Turning to QIPYYAQSTYFEVESTDPFW [BPSS0530_P41], the “% Responders” value is listed as 81.4% and the “Median SFC/10^6 PBMCs (IFN-g)” value is reported as 292.
With CMDPATRAGNVRPAFIEALG [BPSS1525_P14], the “% Responders” value was 82.1% and the “Median SFC/10^6 PBMCs (IFN-g)” value is 200.
For GAGIGALAGGGKGAAIGAGV [BPSL0999_P5], in that order: 80.9% and 346.
Regarding DQYAITPAFTPLLNDLATTL [BPSL0999_P12], the “% Responders” value is 83.0% and the “Median SFC/10^6 PBMCs (IFN-g)” value came to 358.
With LRIVGDFPDLRFEAWGLRDGKVA [BPSS0530_P44], the “% Responders” value stood at 90.7% and the “Median SFC/10^6 PBMCs (IFN-g)” value is recorded as 225.
As to RFIPPLLDTRAHLVLRSLID [BPSS0530_P20], the “% Responders” value turned out to be 90.7% and the “Median SFC/10^6 PBMCs (IFN-g)” value was found to be 248.
ETPVLPLRFEDRGDQVHICI [BPSS0530_P33]: the “% Responders” value was 86.0% and the “Median SFC/10^6 PBMCs (IFN-g)” value amounted to 233.
Consider MSAAAQDRSIGAAQMTAAIA [BPSS1531_P20], for which the “% Responders” value is reported as 91.4% and the “Median SFC/10^6 PBMCs (IFN-g)” value came out at 225.
On the same counts, the results for FEVESTDPFWKQTLAGSAMA [BPSS0530_P42] are 83.7% and 237.
In the case of GGWNVVIGEPELERQGFQNF [BPSS1599_P15], the “% Responders” value worked out at 87.5% and the “Median SFC/10^6 PBMCs (IFN-g)” value came to 179.
As for IVEFAKLAKQFEERDAVLLG [BPSL2096_P7], the “% Responders” value worked out at 85.3% and the “Median SFC/10^6 PBMCs (IFN-g)” value was found to be 304.
Regarding VGLQAGAQSKAIVFLFMTQD [BPSL1445_P12], the “% Responders” value is 93.9% and the “Median SFC/10^6 PBMCs (IFN-g)” value is listed as 321.
Regarding LSPRAALIAATAACVVLGGA [BPSS1599_P20], the “% Responders” value was 97.9% and the “Median SFC/10^6 PBMCs (IFN-g)” value amounted to 150.
For DAARATGLPGADKQGVFTPS [BPSS1525_P16], the “% Responders” value was determined as 82.1% and the “Median SFC/10^6 PBMCs (IFN-g)” value is reported as 197.
As for FSKIGETLGQLFRHRAPDSA [BPSS1525_P5], the “% Responders” value was 89.7% and the “Median SFC/10^6 PBMCs (IFN-g)” value was 178.
For IFAFSAAMPAEKLRQLLPQQ [BPSS0530_P36], the “% Responders” value is reported as 95.3% and the “Median SFC/10^6 PBMCs (IFN-g)” value came out at 298.
As for PATANAKCDGALVAQAPAPA [BPSL2522_P7], the “% Responders” value turned out to be 82.9% and the “Median SFC/10^6 PBMCs (IFN-g)” value is 265.
VRPAFIEALGDAARATGLPG [BPSS1525_P15]: the “% Responders” value turned out to be 89.7% and the “Median SFC/10^6 PBMCs (IFN-g)” value is on record as 220.
For AHNQTLSQNRAQSVVNALAQ [BPSL0999_P16], in that order: 85.1% and 350.
Turning to IQHVSVNNLNVGRSPEEILR [BPSL2096_P15], the “% Responders” value turned out to be 82.4% and the “Median SFC/10^6 PBMCs (IFN-g)” value was 314.
In the case of SAQSVPASRQAVNDNWVNGT [BPSL2522_P3], the “% Responders” value is reported as 88.6% and the “Median SFC/10^6 PBMCs (IFN-g)” value is recorded as 267.
As for CIGKIVGWVITAVSFAAAAF [BPSS1532_P35], the “% Responders” value is given as 87.1% and the “Median SFC/10^6 PBMCs (IFN-g)” value came to 172.
Turning to GDWVGSREEALERLHTDYAW [BPSS1599_P13], the “% Responders” value stood at 95.8% and the “Median SFC/10^6 PBMCs (IFN-g)” value is recorded as 182.
Regarding GVAAAGYANTRDGFAPGHLS [BPSS1599_P6], the “% Responders” value came out at 85.4% and the “Median SFC/10^6 PBMCs (IFN-g)” value is 129.
For LRVERIAYQNNQWTLEGVLY [BPSS1599_P42], in that order: 91.7% and 139.
For EVPDLAVGLDAPGTPRRLTI [BPSS0530_P14], in that order: 95.3% and 279.
With LGAMVSRAIALEGAFYNGRR [BPSS1599_P8], the “% Responders” value turned out to be 89.6% and the “Median SFC/10^6 PBMCs (IFN-g)” value came out at 99.
On to LQTSFEPLAMMLRQALARVI [BPSS0530_P31], for which the “% Responders” value was determined as 97.7% and the “Median SFC/10^6 PBMCs (IFN-g)” value came to 240.
As to ITNYFTGLQTVANNAADPSA [BPSL0280_P12], the “% Responders” value turned out to be 82.8% and the “Median SFC/10^6 PBMCs (IFN-g)” value turned out to be 557.
On to FETVTEASFPGKWKIIYFYP [BPSL2096_P4], for which the “% Responders” value turned out to be 88.2% and the “Median SFC/10^6 PBMCs (IFN-g)” value is given as 305.
Regarding WSDGMLIETQHFQQLERHLA [BPSS0530_P2], the “% Responders” value is 90.7% and the “Median SFC/10^6 PBMCs (IFN-g)” value was determined as 260.
For GKGAAIGAGVGALVGGVTGY [BPSL0999_P6], the “% Responders” value is 91.5% and the “Median SFC/10^6 PBMCs (IFN-g)” value amounted to 357.
As for AAQKAIDAAKSQVANDNAVA [BPSS1531_P40], the “% Responders” value was determined as 85.7% and the “Median SFC/10^6 PBMCs (IFN-g)” value was determined as 198.
Turning to AATAVMAASASAQSVPASRQ [BPSL2522_P2], the “% Responders” value is on record as 88.6% and the “Median SFC/10^6 PBMCs (IFN-g)” value amounted to 273.
As to DPLPPAMLYHELVGLLGRLS [BPSS0530_P27], the “% Responders” value was determined as 86.0% and the “Median SFC/10^6 PBMCs (IFN-g)” value was 239.
On the same counts, the results for ELCWRDAFWTPATANAKCDG [BPSL2522_P6] are 91.4% and 291.
In the case of GGERMSDEHASVLAQEAPAR [BPSS1531_P30], the “% Responders” value is 91.4% and the “Median SFC/10^6 PBMCs (IFN-g)” value came to 213.
In the case of VDKQWNLKKLIFAFSAAMPA [BPSS0530_P35], the “% Responders” value is 90.7% and the “Median SFC/10^6 PBMCs (IFN-g)” value is 243.
In the case of ATFIVDPDNTIQHVSVNNLN [BPSL2096_P14], the “% Responders” value was found to be 91.2% and the “Median SFC/10^6 PBMCs (IFN-g)” value came to 344.
Consider NANLGGIAPPEFVRAIDVPG [BPSS1599_P40], for which the “% Responders” value was found to be 89.6% and the “Median SFC/10^6 PBMCs (IFN-g)” value is 137.
With SLRRAQAVKSYLVSKGVPAN [BPSL2522_P16], the “% Responders” value came out at 82.9% and the “Median SFC/10^6 PBMCs (IFN-g)” value is given as 317.
